In article PMC7845692 (Frontiers in Pharmacology, 2020):
Structures can show the parent of a compound that is named as a salt. Where two headings read alike, the source gives them in different places.

Key:
[1] = tested on: Feline infectious peritonitis virus; experiment: anti-FIPV activity, cytopathic effect by visualization in Fcwf-4 cells; settings: for EC50: Alphacoronavirus 1, read-out: Feline infectious peritonitis virus EC50 CPE/visualization; for Feline infectious peritonitis virus Selectivity index: CC50/EC50, Fcwf-4 cells
Experimental: (§2) The serotype II FIPV Taiwan isolate NTU156 strain, a kind gift from National Taiwan University, was propagated and titrated in Fcwf-4 cells ([Lin et al., 2009]). The EC50 for anti-FIPV activity and CC50 for cell cytotoxicity were determined as previously described ([Yang et al., 2020b]).

Human coronavirus OC43 = experiment: HCoV-OC43 immunofluorescent assay (IFA) against N protein in HCT-8 cells; assay type: cell-based; settings: for EC50: read-out: Human coronavirus OC43 EC50 (IFA); for Human coronavirus OC43 Selectivity index: CC50/EC50, HCT-8 cells
in vitro [2] = settings: human
in vitro [3] = settings: cat
Experimental: as §2

in vitro [4] = settings: human, MRC-5 cells
HCoV-OC43 = HCoV-OC43 viral yield, end point dilution assay / TCID50; assay type: cell-based, Human coronavirus OC43
SARS-CoV-2 [5] = experiment: SARS-CoV-2 IFA against N protein in Vero E6 cells; assay type: cell-based
Experimental: (§1) CPE was performed as described ([Wu et al., 2004]). For IFA, Vero E6 cells (BCRC number: 60476; derived from ATCC CRL-1586) were treated with each compound at the indicated concentration for 1 h at 37°C. The cells were adsorbed with SARS-CoV-2 (TCDC#4) (sequence available on the GISAID website) at an MOI = 0.01 for 1 h at 37°C. After virus adsorption, the cells were washed with PBS and fresh medium containing each compound at the indicated concentration was added. After 2 days, cells were fixed with 4% paraformaldehyde and permeabilized with 0.5% Triton X-100. The cells were stained with anti-SARS-CoV-2 N protein antibody, provided by Dr. An-Suei Yang of the Genomics Research Center, Academia Sinica, and goat anti-human IgG-Alexa Fluor 488 (A11013, Invitrogen) (in green). The nuclei were counter stained with DAPI (in blue) (D1306, Invitrogen). The N protein expression was measured using a high-content image analysis system (Molecular Devices). The cell viability was determined by Cell Counting Kit-8 (CCK-8) (Sigma-Aldrich, cat #96992). EC50 and CC50 values were calculated by Prism software.

HCoV-229E [6] = experiment: HCoV-229E viral yield, end point dilution assay / TCID50; settings: MRC-5, MOI 0.05
Human coronavirus 229E = experiment: HCoV-229E cytopathic effect, crystal violet absorbance in MRC-5 cells; settings: CC50/EC50, MRC-5 cells
HCoV-229E [7] = experiment: HCoV-229E viral RNA (ORF1, ORF N) by semi-RT-qPCR in MRC-5 cells; assay type: cell-based, Human coronavirus 229E; settings: MRC-5, MOI 1, 30 h.p.i., 10–300 nM, dose dependent
Experimental: These experiments were performed as described ([Yang et al., 2007b]). Mock or HCoV-229E infected (MOI of 1) lysates were processed and prepared at 30 h.p.i. without or with compound treatment. The total RNA was extracted with TRIzol reagent (Invitrogen). The relative viral RNA expression levels were determined by semi-RT-qPCR, analyzed with the ImageJ Analyzer program (http://imagej.nih.gov/ij/index.html), and normalized with the housekeeping gene GAPDH. The primers used to amplify the PCR products were 5′-GGCGAGGTGGAATTTGTTTA-3′ and 5′-ACCTTTAAGCCACCATGTGC-3′ for ORF1; 5′-TCTGCCAAGAGTCTTGCTCG-3′ and 5′-AGCATAGCAGCTGTTGACGG-3′ for ORF N. The amplification of target cDNA was conducted under the following conditions: 25 cycles of 95°C for 30 s, 55°C for 20 s, and 72°C for 30 s for ORF N; 29 cycles of 95°C for 30 s, 55°C for 20 s, and 72°C for 30 s for ORF1, and 35 cycles of 95°C for 30 s, 55°C for 20 s, and 72°C for 30 s for GAPDH. The final PCR products were subjected to electrophoresis on 2% agarose gel containing ethidium bromide along with DNA markers.

[8] = Vero E6 cytotoxicity by visualization; assay type: cell-based; settings: African green monkey, Vero E6 cells; read-out: SARS-CoV-2 CC50 Visualization
Experimental: as §1

[9] = HCT-8 cell viability (MTS); settings: human, HCT-8 cells
[10] = Vero E6 cell viability (CCK-8); assay type: cell-based; settings: African green monkey, Vero E6 cells; read-out: SARS-CoV-2 CC50 CCK-8
Experimental: as §1

[11] = cell cytotoxicity by visualization (FIPV host cells); settings: cat
Experimental: as §2

SARS-CoV-2 [12] = experiment: microbe, parasite or virus in culture; assay type: cell-based
SARS-CoV-2 [13] = experiment: SARS-CoV-2 cytopathic effect by visualization in Vero E6 cells; assay type: cell-based
Experimental: as §1

[14] = Betacoronavirus 1, OC43, HCT-8, 72 h

## C[C@H]1O[C@@H](O[C@H]2[C@@H](O)C[C@H](O[C@H]3[C@@H](O)C[C@H](O[C@H]4CC[C@@]5(C)[C@H](CC[C@@H]6[C@@H]5CC[C@]5(C)[C@@H](C7=CC(=O)OC7)CC[C@]65O)C4)O[C@@H]3C)O[C@@H]2C)C[C@H](O)[C@@H]1O [Digitoxin, digitoxin]
[1]
  EC50: 97 ± 6 nM
  Feline infectious peritonitis virus Selectivity index: 8.5
Human coronavirus OC43; Betacoronavirus 1, OC43, HCT-8 cells, MOI 0.05, 72 h.p.i., means ± SD
  EC50: 88 ± 16 nM
Human coronavirus OC43
  Human coronavirus OC43 Selectivity index: 10.3
In vitro [2]
  CC50: 909 ± 123 nM
In vitro [3]
  CC50: 825 ± 195 nM

## C[C@]12CCC(=NOCCN)C[C@@H]1C(=O)C[C@@H]1[C@@H]2CC[C@]2(C)C(=O)CC[C@@H]12 [Istaroxime, istaroxime hydrochloride]
[1]
  EC50: 2160 nM
  Feline infectious peritonitis virus Selectivity index: 3.3
Human coronavirus OC43; [14]
  EC50: 5420 ± 268 nM
Human coronavirus OC43
  Human coronavirus OC43 Selectivity index: 5.9
In vitro [2]
  CC50 at 72 h: 32000 nM
In vitro [3]
  CC50: 7120 ± 750 nM

## CCN1Cc2c(c3ccc(OC)cc3c3cc(OC)c(OC)cc23)C(O)C1 (stereo not shown) [dbq33b]
In vitro [4]
  CC50: 1710 nM
HCoV-OC43; HCT-8, MOI 0.05, supernatant 72 h.p.i., at 30, 100 and 300 nM respectively (dbq33b, dbq33b4p7, PI09)
  complete reduction of HCoV-OC43 viral yield: 7–8 log of magnitudes
HCoV-OC43; HCT-8, MOI 0.05, reduction ∼7–8 log
  concentration accomplishing complete reduction of HCoV-OC43 viral yield: 30 nM
[1]
  EC50: 8 ± 2 nM
  Feline infectious peritonitis virus Selectivity index: 390.6
SARS-CoV-2 [5]; CC50/EC50, Vero E6 cells
  SARS-CoV-2 Selectivity index (IFA/CCK-8): 367
SARS-CoV-2 [5]; Severe acute respiratory syndrome coronavirus 2, Vero C1008, 48 h, read-out: SARS-CoV-2 EC50 IFA, Vero E6 cells, MOI 0.01, 2 d.p.i., N protein
  EC50: 14 nM
SARS-CoV-2 [5]; Vero E6 cells, MOI 0.01, 2 d.p.i., N protein, read-out: SARS-CoV-2 EC50 IFA
  EC50: 13.9 nM
HCoV-229E [6]; at 100, 300 and 600 nM respectively (dbq33b, dbq33b4p7, PI09)
  complete reduction of HCoV-229E viral yield: 6–7 log of magnitudes
HCoV-229E [6]; reduction 6–7 log
  concentration giving complete reduction of HCoV-229E viral yield: 100 nM
Human coronavirus 229E
  Human coronavirus 229E Selectivity index: 264
HCoV-229E [7]
  effect on HCoV-229E viral genome replication and subgenomic viral RNA syntheses (RT-PCR ORF1, ORF N): inhibited HCoV-229E viral genome replication and subgenomic viral RNA syntheses
Human coronavirus OC43; [14]
  EC50: 16 ± 5 nM
Human coronavirus OC43
  Human coronavirus OC43 Selectivity index: >610
[8]
  CC50: 1250 nM
[9]
  CC50 at 72 h: > 10000 nM
[10]
  CC50: 5100 nM
[11]
  CC50: 3120 nM
SARS-CoV-2 [12]; Severe acute respiratory syndrome coronavirus 2, Vero C1008, read-out: SARS-CoV-2 plaque assay EC50, Vero E6 cells
  EC50: 14 nM
SARS-CoV-2 [12]; Severe acute respiratory syndrome coronavirus 2, Vero C1008, read-out: SARS-CoV-2 plaque assay EC50, Vero E6 cells, 5–7 days, Figure 5B-b
  EC50: 13.8 ± 0.3 nM
SARS-CoV-2 [13]; CC50/EC50, Vero E6 cells
  SARS-CoV-2 Selectivity index (CPE/visualization): 500
SARS-CoV-2 [13]; Severe acute respiratory syndrome coronavirus 2, Vero C1008, Vero E6 cells, means from duplicate, read-out: SARS-CoV-2 EC50 CPE/visualization
  EC50: 2.5 nM
